Measurements from patent publication US8383608B2, “Imidazolidine compounds as androgen receptor modulators” (Dart Therapeutics LLC, priority 2008, dated 2013).
Where two headings read alike, the source gives them in different places.

Target: T1, human androgen receptor (hAR) (Homo sapiens, UniProt P10275)
T1 construct: expressed in transfected cells
T1 sequence (P10275 1-920): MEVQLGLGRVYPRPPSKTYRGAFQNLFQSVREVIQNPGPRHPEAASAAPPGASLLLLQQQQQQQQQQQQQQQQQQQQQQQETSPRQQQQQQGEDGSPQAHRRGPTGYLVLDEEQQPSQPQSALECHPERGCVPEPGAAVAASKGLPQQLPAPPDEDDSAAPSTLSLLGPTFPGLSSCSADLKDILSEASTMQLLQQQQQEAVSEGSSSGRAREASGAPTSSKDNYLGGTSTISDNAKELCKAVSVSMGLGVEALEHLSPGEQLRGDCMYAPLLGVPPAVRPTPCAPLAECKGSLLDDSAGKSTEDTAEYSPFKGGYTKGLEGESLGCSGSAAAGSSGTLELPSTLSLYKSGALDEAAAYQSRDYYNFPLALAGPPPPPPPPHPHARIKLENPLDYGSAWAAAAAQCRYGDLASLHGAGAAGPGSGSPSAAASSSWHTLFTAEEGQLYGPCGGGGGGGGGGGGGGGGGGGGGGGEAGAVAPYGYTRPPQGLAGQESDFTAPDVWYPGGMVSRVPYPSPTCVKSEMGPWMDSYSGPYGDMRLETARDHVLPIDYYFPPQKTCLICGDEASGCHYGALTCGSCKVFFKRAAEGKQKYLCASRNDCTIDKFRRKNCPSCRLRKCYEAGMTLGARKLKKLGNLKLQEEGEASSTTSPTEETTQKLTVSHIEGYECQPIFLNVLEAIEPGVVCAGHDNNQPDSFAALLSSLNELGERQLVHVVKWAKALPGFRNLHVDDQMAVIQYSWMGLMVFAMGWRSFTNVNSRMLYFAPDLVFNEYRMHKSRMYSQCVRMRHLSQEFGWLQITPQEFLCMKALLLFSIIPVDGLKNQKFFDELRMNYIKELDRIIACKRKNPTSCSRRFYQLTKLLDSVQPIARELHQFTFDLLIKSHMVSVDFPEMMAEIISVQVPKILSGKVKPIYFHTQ
Assay: Functional response (transactivation) test in HALP2 cells (HeLa stably expressing hAR and ARE-luciferase reporter)
Format: cell-based
Settings: for Emax: HeLa, read-out: % effect relative to DHT (100%)
From the text: This test constitutes a method of identifying pure or partial agonists which mimic the effects of natural hormones, such as DHT (dihydrotestosterone) in the present case or, on the other hand, antagonists which inhibit them.
For this transactivation test, plasmids encoding a reporter gene and the human androgen receptor (hAR) are introduced together by transfection into the HeLa cell line. The reporter plasmid contains luciferase cDNA under the control of the AREs contained in the promoter sequences of the probasin gene (3xpbAREminicoll-luciferase/pGL3-puro). The expression of the reporter gene constitutes an indication of the transcriptional activity of hAR. It also encodes a protein allowing the cells expressing it to resist a treatment with puromycin. The plasmid encoding hAR contains the cDNA of hAR under the control of the Cytomegalovirus (CMV) promoter. It also encodes a protein allowing the cells expressing it to resist a treatment with neomycin. The treatment of cells with increasing amounts of potentially agonistic compounds will increase the expression of the reporter gene. To detect antagonists, on the other hand, increasing doses of test compounds are tested in the presence of […] of DHT. The expression of the reporter gene, which is constant for each dose of DHT, decreases when the concentration of the test compounds increases.
The functional response test is conducted on 96-well plates. The HALP2 cells are seeded (20,000 cells per well) in culture medium (DMEM with phenol red, 1% de Pen-Strep, 1% of non-essential amino acids, 10% of fetal bovine serum, 400 μg/mL Geneticin and 0.150 puromycin) on day 1. After 24 hours incubating at 37° C., 5% CO2, high humidity (day 2) the medium is removed and refreshed with test medium (DMEM without phenol red supplemented, 1% de Pen-Strep, 1% of non-essential amino acids and 5% of desteroidised foetal bovine serum). After another 24 hours incubating at 37° C., 5% CO2, high humidity (day 3), the medium is renewed once more before the phase of stimulation.
The cells are placed in contact with the compounds for 24 hours at 37° C., 5% CO2, high humidity. On day 4 the medium is then removed and the luciferase activity reading reagent is placed in contact with the cells in accordance with the manufacturer's instructions (SteadyLite, Perkin-Elmer). The luminescence produced is detected on an Envision reader (Perkin-Elmer). […]
The determination of the relative agonism/antagonism of a compound is obtained by comparing the maximal activation obtained with said compound and the activation obtained with DHT alone (100%).

[1] = maximal activation by the compound compared with DHT alone (100%), HALP2 cells

| SMILES | Emax [1] | EC50 | Emax | further results |
| --- | --- | --- | --- | --- |
| CCC(O)C1(c2ccccc2)C(=O)N(c2ccc(C#N)c(C(F)(F)F)c2)C(=O)N1C (single isomer, unassigned) [Example 2, 4-[2,5-Dioxo-4-(1-hydroxypropyl)-3-methyl-4-phenylimidazolidin-1-yl]-2-trifluoromethylbenzonitrile] | 0 to 5% |  |  |  |
| N#Cc1ccc(N2C(=O)NC(CO)(c3ccccc3)C2=O)cc1C(F)(F)F (centres unmarked) [Example 20, 4-[2,5-Dioxo-4-hydroxymethyl-4-phenylimidazolidin-1-yl]-2-trifluoromethylbenzonitrile] |  |  |  | % effect relative to DHT (100%) [1]: § (0-5%) |
| CN1C(=O)N(c2ccc(C#N)c(C(F)(F)F)c2)C(=O)C1(COP(=O)(O)O)c1ccccc1 (centres unmarked) [Example 24, [1-(4-Cyano-3-trifluoromethylphenyl)-2,5-dioxo-3-methyl-4-phenylimidazolidin-4-yl]methyl dihydrogen phosphate] | 21 to 40% |  |  | EC50 (agonism: concentration inducing 50% of the maximum agonistic effect of the tested compound, HALP2 cells, 24 hours, read-out: EC50): 0.01 to 10 nM |
| CC(C)[C@H](N)C(=O)OCC1(c2ccccc2)C(=O)N(c2ccc(C#N)c(C(F)(F)F)c2)C(=O)N1C (stereo partly drawn) [Example 25, (2S)-1-[1-(4-Cyano-3-trifluoromethylphenyl)-2,5-dioxo-3-methyl-4-phenylimidazolidin-4-yl]methoxy-3-methyl-1-oxobutan-2-aminium chloride] |  | 11 to 100 nM | 21 to 40% |  |
| CN1C(=O)N(c2ccc(C#N)c(C(F)(F)F)c2)C(=O)C1(COC(=O)CCC(=O)O)c1ccccc1 (centres unmarked) [Example 26, 4-[1-(4-Cyano-3-trifluoromethylphenyl)-2,5-dioxo-3-methyl-4-phenylimidazolidin-4-yl]methoxy-4-oxobutanoic acid] |  | 11 to 100 nM | 21 to 40% |  |
